The target in one test is CDK4/ cyclin D1 (Homo sapiens, UniProt P11802). Description: kinase inhibition selectivity, CDK4/cyclin D1. The test is classed as biochemical.
A further test has as its target CDK5/ p35 (Homo sapiens, UniProt Q00535). Description: kinase inhibition selectivity, CDK5/p35. Format: biochemical.
A further test concerns the target p34^cdc2/cyclinB. Briefly: p34cdc2/cyclin B kinase assay (histone H1 phosphorylation, [γ-32P] ATP). The test is classed as biochemical, starfish (Marthasterias glacialis). As to the method: J. Biochem., 243, (1997), 527-536). […] After 10 min. incubation at 30°C, 25 μl aliquots of supernatant were spotted onto 2.5 x 3 cm pieces of Whatman P81 phosphocellulose paper, and after 20 sec., the filters were washed five times (for at least 5 min. each time) in a solution of 10 ml phosphoric acid/liter of water. The wet filters were transferred into 6 ml plastic scintillation vials, 5 ml ACS (Amersham) scintillation fluid was added and the radioactivity measured in a Packard scintillation counter.

The target in another test is CDK2/ cyclin A (Homo sapiens, UniProt P24941). Description: biochemical.
The target of another test is CDK2/ cyclin E (Homo sapiens, UniProt P24941). Description: biochemical.
Another test relates to cdc25. Description: cdc25 inhibition (specificity panel). The test is classed as biochemical. As to conditions: Table 3.
For test [1] the following is noted: compared with indirubine; cited from earlier work.
In test [2] the test system is PKC. Description: PKC inhibition (specificity panel). As to conditions: Ca2+-dependent protein kinase, Table 3. The test is classed as biochemical.
The next test deals with PKG. As to conditions: Table 1, known inhibitors; cited from earlier work.
Test [3] has as its system PKC. As to conditions: Table 1, known inhibitors; cited from earlier work.
The next test concerns CDK1. As to conditions: Table 1, known inhibitors; roscovitine value for racemic mixture; cited from earlier work.
Test [4] addresses epidermal growth factor receptor tyrosine kinase (Homo sapiens, UniProt P00533). As to conditions: Table 1, known inhibitors; read-out: IC50 Tyrosine-kinase (EGF-R); cited from earlier work.
The subject of a further test is MAPK. As to conditions: Table 1, known inhibitors; cited from earlier work.
For test [5], the system named is MCF-7 mammary carcinoma cells. Briefly: induction of apoptotic cell death in cell culture. Format: cell-based, human. The method, then:
(§1) An inhibition of p34^cdc2-kinase by indigoid bisindole derivatives is not described in the prior art. […] In concentrations ≥ 5 µM, an additional arrest at G2/M-phase of the cell cycle became apparent.

The next test has as its system CDK1/cyclin B. Description: histone H1 phosphorylation as a measure for CDK1/cyclin B activity in cell culture. Format: cell-based, human. As to conditions: after 24 h incubation of MCF-7 mammary carcinoma cells. From the text: An inhibition of p34^cdc2-kinase by indigoid bisindole derivatives is not described in the prior art.
The test system of test [6] is MCF-7 mammary carcinoma cells. Briefly: growth inhibition in cell culture. The test is classed as cell-based. As to conditions: Homo sapiens, MCF7, 72 h; after 3 days incubation; 50% growth inhibition as compared to vehicle control. As to the method:
as §1

Test [7] deals with MCF-7 mammary carcinoma cells. Briefly: cell cycle arrest in cell culture. Format: cell-based, human. As to the method:
as §1

Test [8] deals with chronic myelogenous leukemia. As to conditions: cases of chronic myelogenous leukemia; cited from earlier work.
Setting [9] is: calculated from dose response curves, Table 4, read-out: IC50 CDK5/ p35.
The mark [10] stands for this setting: calculated from dose response curves, Table 4, read-out: IC50 CDK1/ cyclin B.
[11] abbreviates: cdc2 kinase, Table 3, read-out: IC50 cdc2.
The mark [12] stands for this setting: cells arrested by serum deprivation, treatment for 24 h in serum containing medium.

Read-outs that look alike come from different tables or passages of the source.

CDK5/ p35, sequence (Q00535 whole entry, species assumed): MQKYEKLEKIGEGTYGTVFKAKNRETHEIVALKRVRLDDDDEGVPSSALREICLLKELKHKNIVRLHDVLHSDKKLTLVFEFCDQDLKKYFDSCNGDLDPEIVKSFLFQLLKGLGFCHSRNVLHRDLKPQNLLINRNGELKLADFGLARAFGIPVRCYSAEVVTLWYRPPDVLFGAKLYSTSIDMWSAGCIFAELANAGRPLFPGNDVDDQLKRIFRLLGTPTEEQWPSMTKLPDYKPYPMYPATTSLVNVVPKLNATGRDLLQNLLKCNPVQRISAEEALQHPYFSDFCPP
CDK5/ p35, sequence (Q15078 whole entry partner, species assumed): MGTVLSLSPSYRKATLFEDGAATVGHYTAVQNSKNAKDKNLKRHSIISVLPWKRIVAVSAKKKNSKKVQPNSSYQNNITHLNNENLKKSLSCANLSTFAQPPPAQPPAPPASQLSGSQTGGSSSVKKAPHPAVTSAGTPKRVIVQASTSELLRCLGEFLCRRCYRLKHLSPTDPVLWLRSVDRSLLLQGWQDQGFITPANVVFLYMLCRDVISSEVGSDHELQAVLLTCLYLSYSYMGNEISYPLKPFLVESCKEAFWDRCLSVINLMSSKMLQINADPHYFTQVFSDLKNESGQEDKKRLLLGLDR
CDK4/ cyclin D1, sequence (P11802 whole entry, species assumed): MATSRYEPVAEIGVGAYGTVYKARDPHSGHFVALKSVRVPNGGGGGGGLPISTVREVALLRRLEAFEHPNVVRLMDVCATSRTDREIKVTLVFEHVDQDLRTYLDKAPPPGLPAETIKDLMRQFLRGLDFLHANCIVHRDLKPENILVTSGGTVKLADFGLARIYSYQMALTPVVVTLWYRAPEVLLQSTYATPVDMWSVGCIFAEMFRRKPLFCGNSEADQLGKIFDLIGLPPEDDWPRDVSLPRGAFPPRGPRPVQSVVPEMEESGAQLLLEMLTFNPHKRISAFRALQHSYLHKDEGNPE
CDK4/ cyclin D1, sequence (P24385 whole entry partner, species assumed): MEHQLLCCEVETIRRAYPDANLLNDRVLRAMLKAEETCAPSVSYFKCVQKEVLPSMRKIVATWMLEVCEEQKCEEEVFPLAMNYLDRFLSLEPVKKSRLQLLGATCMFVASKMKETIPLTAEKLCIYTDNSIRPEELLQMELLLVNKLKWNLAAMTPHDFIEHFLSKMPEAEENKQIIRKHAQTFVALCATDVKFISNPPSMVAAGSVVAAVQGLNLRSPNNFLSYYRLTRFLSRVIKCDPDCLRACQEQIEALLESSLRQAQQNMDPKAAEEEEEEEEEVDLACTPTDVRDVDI
epidermal growth factor receptor tyrosine kinase, sequence (P00533 25-1210): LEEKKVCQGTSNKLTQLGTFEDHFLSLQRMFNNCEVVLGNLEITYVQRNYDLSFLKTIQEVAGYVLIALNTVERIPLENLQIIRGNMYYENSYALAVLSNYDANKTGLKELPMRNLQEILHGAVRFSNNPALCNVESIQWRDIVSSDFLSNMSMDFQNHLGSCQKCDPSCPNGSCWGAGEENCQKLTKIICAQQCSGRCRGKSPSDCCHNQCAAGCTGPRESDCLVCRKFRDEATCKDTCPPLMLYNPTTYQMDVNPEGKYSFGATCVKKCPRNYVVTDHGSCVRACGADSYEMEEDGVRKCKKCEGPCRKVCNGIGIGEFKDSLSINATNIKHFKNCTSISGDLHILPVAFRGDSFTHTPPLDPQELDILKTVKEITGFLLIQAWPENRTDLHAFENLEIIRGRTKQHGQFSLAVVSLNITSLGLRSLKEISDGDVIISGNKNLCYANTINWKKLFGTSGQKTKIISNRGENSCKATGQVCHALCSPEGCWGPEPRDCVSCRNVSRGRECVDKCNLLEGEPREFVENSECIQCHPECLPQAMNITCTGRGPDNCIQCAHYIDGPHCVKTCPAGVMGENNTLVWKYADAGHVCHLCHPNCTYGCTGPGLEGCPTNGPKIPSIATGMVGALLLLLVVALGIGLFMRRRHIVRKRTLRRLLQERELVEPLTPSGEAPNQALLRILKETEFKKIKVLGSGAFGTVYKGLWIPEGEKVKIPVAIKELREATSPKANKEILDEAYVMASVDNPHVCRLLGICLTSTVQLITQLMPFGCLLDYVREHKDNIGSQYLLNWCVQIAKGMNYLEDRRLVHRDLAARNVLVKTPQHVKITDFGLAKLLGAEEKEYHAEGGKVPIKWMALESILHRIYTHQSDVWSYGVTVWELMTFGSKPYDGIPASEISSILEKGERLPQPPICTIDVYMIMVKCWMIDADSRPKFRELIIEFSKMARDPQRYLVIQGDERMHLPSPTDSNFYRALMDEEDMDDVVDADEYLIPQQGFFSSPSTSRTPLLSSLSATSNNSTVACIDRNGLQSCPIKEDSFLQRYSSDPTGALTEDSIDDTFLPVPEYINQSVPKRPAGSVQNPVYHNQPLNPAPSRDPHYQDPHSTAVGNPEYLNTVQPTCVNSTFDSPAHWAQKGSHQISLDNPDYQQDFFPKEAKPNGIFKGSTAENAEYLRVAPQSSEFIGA

In the case of `O=C1/C(=C2\Nc3ccccc3C2=O)Nc2ccccc21` [indigo], the IC50 at CDK4/ cyclin D1 (calculated from dose response curves, Table 4, read-out: IC50 CDK4/ cyclin D1) was > 100 µM; on CDK5/ p35 (setting [9]), > 100 µM; on p34^cdc2/cyclinB (setting [10]) it was > 1000 µM; on CDK2/ cyclin A it was 70 µM; against CDK2/ cyclin E it was > 1000 µM.
Take `O=C1Nc2ccc(F)cc2/C1=C1/Nc2ccccc2C1=O` [Example 5, 5-Fluoroindirubine]: the results for the IC50 at p34^cdc2/cyclinB (setting [11]) and in the test with cdc25 were 2 µM and 70 µM, respectively.
In the case of `O=C1Nc2ccc(I)cc2/C1=C1/Nc2ccccc2C1=O` [Example 2, 5-Iodoindirubine], the antitumor activity entry in test [1] is “superior to that of indirubine”. For the same compound, the results for the IC50 at p34^cdc2/cyclinB (setting [11]) and with cdc25 were 0.3 µM and 130 µM, respectively. Further, the “IC50 PKC” value with PKC [2] is reported as “no Effect”.
For the compound `CN1CC[C@H](c2c(O)cc(O)c3c(=O)cc(-c4ccccc4Cl)oc23)[C@H](O)C1` [Flavopiridol], the IC50 in the test with PKG is 6 µM.
With `O=C1Nc2ccc(Cl)cc2/C1=C1/Nc2ccccc2C1=O` [Example 4, 5-Chloroindirubine], the IC50 at CDK4/ cyclin D1 was 6.5 µM; on CDK5/ p35 it was 0.8 µM; at p34^cdc2/cyclinB (setting [10]), 0.4 µM; at p34^cdc2/cyclinB (setting [11]) it was 0.4 µM; on CDK2/ cyclin A it was 0.75 µM; against CDK2/ cyclin E, 0.55 µM. Also, in the test with cdc25, the IC50 was found to be 55 µM.
Consider `CN[C@@H]1C[C@H]2O[C@@](C)([C@@H]1OC)n1c3ccccc3c3c4c(c5c6ccccc6n2c5c31)C(=O)N[C@@H]4O` [UCN-01], for which the IC50 was […] in the test with PKC [3] and 0.031 µM in the test on CDK1.
As for `Cc1ccc2c(c1)C(=C1Nc3ccccc3C1=O)C(=O)N2` [Example 6, 5-Methylindirubine], the IC50 is 0.8 µM on p34^cdc2/cyclinB (setting [11]) and 60 µM in the test on cdc25.
On to `O=C1Nc2ccccc2/C1=C1\C(=O)Nc2ccccc21` [Example 12, Isoindigo], for which the IC50 on p34^cdc2/cyclinB (read-out: IC50-value for the p34^cdc2/cyclinB complex) was determined as 80 µM.
Consider `COC(=O)C1(Cc2ccc(O)c(CC=C(C)C)c2)OC(=O)C(O)=C1c1ccc(O)cc1` (stereo not drawn) [Butyro-lactone-I, Butyrolactone-I], for which the IC50 was > 590 µM in test [4], 160 µM with PKC [3], […] in the test on CDK1 and 94 µM in the test with MAPK.
In the case of `O=C1Nc2ccccc2C1=C1Nc2ccccc2C1=NO` [Example 10, Indirubine-3'-oxime], in test [5], the apoptotic cell death result was “induction of apoptotic cell death was observed”. In addition, in the test on CDK1/cyclin B, the “content of cyclin B complex” value is recorded as “significantly reduced” and the “histone H1 phosphorylation as a measure for CDK1/cyclin B activity” value was “inhibit histone H1 phosphorylation”. For the same compound, the IC50 in test [6] is 3.3 ± 0.7 µM. For the same compound, in test [7] (setting [12]), the “arrest in G1-phase of the cell cycle” value is on record as “low micromolar concentrations” and the “concentration at which additional arrest at G2/M-phase of the cell cycle became apparent” value was ≥ 5 µM. The “concentration giving significant increase of G2/M arrested cells” value in test [7] (cells arrested in G2/M by Nocodazole treatment, after release of the block) is given as ≥ 5 µM. The IC50 against CDK2/ cyclin A amounted to 0.44 µM. The compound also displayed an IC50 at CDK2/ cyclin E of 0.25 µM.
As to `O=C1Nc2ccc(S(=O)(=O)O)cc2C1=C1Nc2ccccc2C1=O` [Example 11, Indirubine-5-sulfonic acid], the IC50 at CDK5/ p35 (setting [9]) was 0.065 µM; at p34^cdc2/cyclinB (setting [10]), 0.055 µM; at p34^cdc2/cyclinB (setting [11]), 0.055 µM; in the test with cdc25, 110 µM.
As to `CN[C@@H]1C[C@H]2O[C@@](C)([C@@H]1OC)n1c3ccccc3c3c4c(c5c6ccccc6n2c5c31)C(=O)NC4` [Staurosporine], the IC50 in the test with PKG was 0.009 µM.
Take `O=C1Nc2ccc(Br)cc2/C1=C1/Nc2ccccc2C1=O` [Example 3, 5-Bromoindirubine]: the IC50 came to 0.35 µM at p34^cdc2/cyclinB (setting [11]) and 32 µM in the test on cdc25.
Regarding `O=C1Nc2ccccc2/C1=C1/Nc2ccc(Br)cc2C1=O` [Example 8, 5'-Bromoindirubine], the IC50 on p34^cdc2/cyclinB (setting [11]) is 6.5 µM.
For the compound `Cc1c2ccncc2c(C)c2c1[nH]c1ccc(O)cc12` [9-Hydroxy-ellipticine, 9-Hydroxyellipticin], the IC50 in the test with CDK1 was ~1 µM.
For `CN1C(=O)/C(=C2/C(=O)Nc3ccccc32)c2ccccc21` [meisoindigo, N-Methyl-isoindigo], in test [8], the “complete and partial remission rate” value is reported as 81.3%; the total response rate is given as 90.1%.
In the case of `O=C1Nc2ccc([N+](=O)[O-])cc2/C1=C1/Nc2ccccc2C1=O` [Example 7, 5-Nitroindirubine], the IC50 at p34^cdc2/cyclinB (setting [11]) came to 2.2 µM; in the test with cdc25, 60 µM.
Regarding `O=C1Nc2ccc(Br)cc2/C1=C1/Nc2ccc(Br)cc2C1=O` [Example 9, 5,5'-Dibromoindirubine], the IC50 on p34^cdc2/cyclinB (setting [11]) turned out to be 7 µM.

The values are drawn from patent EP1079826B1, “USE OF INDIGOID BISINDOLE DERIVATIVES FOR THE MANUFACTURE OF A MEDICAMENT TO INHIBIT CYCLIN DEPENDENT KINASES” (CNRS, Centre National de la Recherche Scientifique, priority 1998, dated 1999).
